Data set [1] deals with CT26 murine colon carcinoma cells. As to the kind of experiment: In vivo antitumor efficacy and safety in CT26 tumor-bearing BALB/c mice. The settings on record: for tumor weight reduction / relative tumor volume growth rate (T/C): CT26 tumor-bearing BALB/c mice; for tumor weight reduction: 21 days. The text has this:
Given its promising in vitro enzymatic potencies, compound NK3 was further evaluated for antitumor efficacy in vivo with a model by injecting immunocompetent BALB/c mice with CT26 murine colon carcinoma cells (Figure 5). CT26 cells, derived from the epithelial glands of BALB/C mice with colon cancer, are commonly employed as a model for investigating immunotherapies and studying host immune responses. […] Dose-dependent growth-inhibitory potency of NK3 was observed (Figure 5B).
Figure 5 In vivo antitumor activity of compound NK3 in CT26 tumor-bearing mice. […] (B) Tumor weight of the excised tumors of each group. (C) Tumor volume of the mice in each group during the observation period. (D) Body weight of the mice from each group at the end of the observation period. Body weight change of each group of mice. The data were presented as the mean ± SD. p < 0.05 (versus the vehicle control group). The antitumor assay in CT26 tumor-bearing mice was carried out in one experiment with previous work.
Pathological analysis of tissue sections from major organs (heart, liver, lung, spleen, and kidney) of CT26 tumor-bearing mice. Hematoxylin and eosin (H&E) were used to stain the organs with representative images captured. The H&E staining of CT26 tumor-bearing mice was carried out in one experiment with previous work.

The next data set has as its system HepG2. As to the kind of experiment: MTT cytotoxicity assay, HepG2. The note with it: Homo sapiens, mean ± SD. Format: cell-based. As for the experimental part: (§1) The cytotoxic activity of these three compounds was evaluated against HepG2, Hct-116, and SKOV3 cancer cells by MTT assay, using doxorubicin (DOX) as the positive control.
For orientation: Tetrazolium assays rely on reduction of a dye to a coloured formazan, in cell work by metabolically active cells.

The test system of another data set is SKOV3. As to the kind of experiment: MTT cytotoxicity assay, SKOV3. Format: cell-based. The note with it: Homo sapiens, SK-OV-3, mean ± SD. How it is done: as §1
The next data set relates to Hct-116. Briefly: MTT cytotoxicity assay, Hct-116. Format: cell-based. The note with it: Homo sapiens, mean ± SD. How it is done: as §1
The next data set addresses recombinant STAT3 (Homo sapiens, UniProt P40763). Briefly: SPR binding assay (BIAcore) with STAT3. The note with it: recombinant STAT3, 0.078-10.0 μM, read-out: KD (equilibrium dissociation constant) with STAT3. As for the experimental part: In order to further investigate the direct interaction between NK3 and STAT3, we conducted an SPR binding assay.
Figure 8 The binding affinity of NK3 with recombinant STAT3 determined by the SPR assay. Concentration from top to bottom: 0.078 μM, 0.156 μM, 0.313 μM, 0.625 μM, 1.25 μM, 2.5 μM, 5.0 μM, and 10.0 μM.
For orientation: SPR reads the build-up and loss of mass on a sensor chip optically.

The test system of data set [2] is human liver cancer HepG2 cells xenograft. Briefly: In vivo antitumor efficacy in nude mice bearing HepG2 xenograft. The note with it: for tumor growth inhibition (tumor weight): 21 days. From the text:
In order to ascertain the viability of IDO1 as an alternative target for compound NK3, a xenograft model was established by inoculating nude mice with human liver cancer HepG2 cells, subsequent to two injections of two doses of NK3 administered at three-day intervals. […] The antitumor effect of NK3 was also reflected in a delayed increase in xenograft volume (Figure 7C).
Figure 7 In vivo antitumor activity of compound NK3 in nude mice bearing HepG2 xenograft model. (A) The images of the harvested tumors from the mice after administration with NK3 (10 and 20 mg/kg) and the positive control doxorubicin (DOX) (5 mg/kg) every 3 days for 3 weeks. (B) Tumor weight of the excised tumors of each group. (C) Tumor volume of the mice in each group during the observation period. (D) Body weight of the mice from each group at the end of the observation period. Body weight change of each group of mice. The data were presented as the mean ± SD. p < 0.05 (versus the vehicle control group). The antitumor assay in nude mice was carried out in one experiment with previous work. TEXT PRINTED IN THE PICTURE: (B) Dox: 53.0% (5 mg/kg) | (B) NK-3: 61.1% (10 mg/kg); 64.4% (20 mg/kg) DOUBTS OF THE COPYIST ABOUT THIS PICTURE: Panel B: the picture prints no measure for the percentages over the bars (53.0%, 61.1%, 64.4%). The axis reads only 'Tumor weight (g)', so they are copied without a measure.

The target of data set [3] is T1, human IDO1 (Homo sapiens, UniProt P14902). Briefly: IDO1 standard enzymatic inhibition assay.
Data set [4] has as its target T1, human IDO1. As to the kind of experiment: SPR binding assay (Biacore T200) with IDO1. The settings on record: immobilized recombinant IDO1, 0.078-10.0 μM, read-out: KD (equilibrium dissociation constant) with IDO1. As for the experimental part: A surface plasmon resonance (SPR)-based binding assay was conducted to validate the direct interaction between NK3 and IDO1 protein using a Biacore T200 optical biosensor. This analytical method is valuable for determining the kinetic and thermodynamic parameters of ligand–protein complex formation and is widely employed in the study of enzyme–enzyme/inhibitor interactions. The binding affinity between compound NK3 and IDO1 was assessed utilizing Biacore analysis software, accompanied by measurements of kinetic association and dissociation. As depicted in Figure 3, compound NK3 efficiently interacted with the immobilized protein to induce a concentration-dependent response for association or dissociation, respectively. […] The binding assays confirmed the direct binding of compound NK3 to IDO1 protein.
Figure 3 The binding affinity of NK3 with recombinant IDO1 determined by the SPR assay. Concentration from top to bottom: 0.078 μM, 0.156 μM, 0.313 μM, 0.625 μM, 1.25 μM, 2.5 μM, 5.0 μM, and 10.0 μM.

For data set [5], the system named is STAT3 nuclear translocation. As to the kind of experiment: Immunofluorescence staining of IL-6-induced STAT3 nuclear translocation in HepG2 cells. Format: cell-based, human. The settings on record: 2 μM, IL-6 stimulation 30 min. As for the experimental part: The central role of nuclear translocation in the functioning of transcription factors is evident. The activation of STAT3 transcription is reliant on its nuclear translocation and subsequent binding to target DNA [43], so we further investigated the inhibitory effect of NK3 on preventing STAT3 from translocating to the nucleus by immunofluorescence staining. To this end, HepG2 cells were treated with 2 μM NK3 for […], and then IL-6 was added to stimulate STAT3 translocation for 30 min.
Figure 9 NK3 inhibited the nuclear translocation of STAT3. […] Cells were treated with 2 μM NK3 for 12 h with or without pre-treatment with 50 ng/mL of IL-6 for 30 min. Then, cells were fixed and stained with anti-p-STAT3 and DAPI before being subjected to Zeiss LSM700 Confocal Microscope for analysis.

As usually defined, the IC50 is the concentration needed to halve the response being measured. A higher IC50 goes with weaker potency. For orientation: Kd means a measure of binding affinity in units of concentration. One may read the melting point as the temperature, or range, at which the solid turns liquid.

T1 sequence (P14902 whole entry): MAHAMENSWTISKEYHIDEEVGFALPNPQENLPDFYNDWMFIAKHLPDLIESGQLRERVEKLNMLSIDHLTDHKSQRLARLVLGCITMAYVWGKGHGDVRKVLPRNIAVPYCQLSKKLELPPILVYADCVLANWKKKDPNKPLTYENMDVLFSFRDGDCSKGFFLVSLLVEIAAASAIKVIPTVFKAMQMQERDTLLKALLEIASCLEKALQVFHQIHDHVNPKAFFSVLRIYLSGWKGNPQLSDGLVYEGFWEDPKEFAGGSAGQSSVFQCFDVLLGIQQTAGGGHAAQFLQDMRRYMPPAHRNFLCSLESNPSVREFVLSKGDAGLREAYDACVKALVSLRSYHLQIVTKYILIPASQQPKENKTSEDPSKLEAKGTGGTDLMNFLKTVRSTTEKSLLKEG
Chain of recombinant STAT3 (P40763 whole entry, species assumed): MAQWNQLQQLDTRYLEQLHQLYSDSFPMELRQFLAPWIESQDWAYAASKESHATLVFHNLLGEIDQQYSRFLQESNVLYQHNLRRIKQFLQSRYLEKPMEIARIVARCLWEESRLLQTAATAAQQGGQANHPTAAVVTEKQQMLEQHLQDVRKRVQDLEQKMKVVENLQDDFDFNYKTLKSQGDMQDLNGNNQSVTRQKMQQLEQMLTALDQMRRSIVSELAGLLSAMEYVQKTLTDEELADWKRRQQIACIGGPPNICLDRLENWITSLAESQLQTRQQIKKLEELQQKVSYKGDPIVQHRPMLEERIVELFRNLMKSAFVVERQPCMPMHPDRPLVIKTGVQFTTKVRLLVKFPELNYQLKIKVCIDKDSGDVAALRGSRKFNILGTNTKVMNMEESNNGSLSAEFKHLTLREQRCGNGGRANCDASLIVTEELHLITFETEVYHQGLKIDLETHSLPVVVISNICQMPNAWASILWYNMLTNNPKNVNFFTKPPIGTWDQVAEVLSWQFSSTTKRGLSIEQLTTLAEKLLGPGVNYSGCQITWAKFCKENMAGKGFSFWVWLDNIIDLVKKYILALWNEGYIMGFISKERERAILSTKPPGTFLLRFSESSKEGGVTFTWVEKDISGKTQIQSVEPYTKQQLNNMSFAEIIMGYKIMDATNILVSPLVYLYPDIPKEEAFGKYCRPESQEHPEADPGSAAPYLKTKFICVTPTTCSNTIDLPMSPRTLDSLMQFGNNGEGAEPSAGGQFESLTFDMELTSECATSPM

In [1] (100 mg/kg intraperitoneal), `Cn1cc(C[C@H](N)C(=O)O)c2ccccc21` [Compound 1-MT, 1-methyl-L-tryptophan, reference compound] came in with a tumor weight reduction of 45.6%.
As for `COc1cccc2c1C(=O)c1c(O)c3c(c(O)c1C2=O)C[C@@](O)(C(=O)CO)C[C@@H]3O[C@H]1C[C@H](N)[C@H](O)[C@H](C)O1` [DOX, doxorubicin, reference compound], the IC50 was 0.28 ± 0.03 µM in the data set on HepG2, 0.58 ± 0.28 µM in the data set with SKOV3 and 0.37 ± 0.02 µM with Hct-116.
Turning to `CCCNC(=O)C(Cc1ccccc1)NC1=C/C(=N/O)c2ccccc2C1=O` (stereo not shown) [NK3, (Z)-2-((4-(hydroxyimino)-1-oxo-1,4-dihydronaphthalen-2-yl)amino)-3-phenyl-N-propylpropanamide], the Kd at recombinant STAT3 turned out to be 170 nM; on human IDO1 [4], 160 nM. Besides, the “tumor growth inhibition (tumor weight)” value in data set [2] (10 mg/kg intravenous every 3 days) was 61.1%; in data set [2] (20 mg/kg intravenous every 3 days), 64.4%. In addition, the “body weight / tolerability” value in [2] (compared to DOX) was “did not cause significant weight loss”. Further, the IC50 came to 0.06 µM against human IDO1 [3], 0.16 ± 0.04 µM in the data set on HepG2, 0.48 ± 0.23 µM in the data set with SKOV3 and 0.18 ± 0.04 µM in the data set on Hct-116. For the same compound, the “relative tumor volume growth rate (T/C)” value in [1] (50 mg/kg) is given as 56.00%; in data set [1] (100 mg/kg), 29.07%. For the same compound, the tumor weight reduction in [1] (50 mg/kg intraperitoneal) came to 42.8%; in data set [1] (100 mg/kg intraperitoneal), 65.8%. In data set [1] (CT26 tumor-bearing mice), the “pathology (H&E) of heart, liver, spleen, lung, kidney” value was “no obvious morphological and pathological changes”. Further, the “body weight change versus vehicle” value in data set [1] (CT26 tumor-bearing mice, 21 days of treatment) is reported as “no significant change in body weight”. Besides, the STAT3 nuclear translocation result in [5] is “significantly inhibited”.
For the compound `O=C1C(NC(Cc2ccccc2)C(=O)NCCc2ccccc2)=C/C(=N/O)c2ccccc21` (stereo not shown) [NK2, (Z)-2-((4-(hydroxyimino)-1-oxo-1,4-dihydronaphthalen-2-yl)amino)-N-phenethyl-3-phenylpropanamide], the melting point lay in the range of 197.2 to 198.6 °C. The compound also displayed an IC50 on human IDO1 [3] of 8.22 µM. For the same compound, in the data set with HepG2, 5.08 ± 0.33 µM corresponded to half-maximal inhibition (IC50). Moreover, the half-inhibitory concentration (IC50) in the data set with SKOV3 turned out to be 4.25 ± 1.65 µM. The IC50 with Hct-116 worked out at 5.84 ± 1.34 µM.
In the case of `Nc1nonc1C(=NO)Nc1ccc(F)c(Cl)c1` [IDO5L, reference compound], the IC50 with HepG2, with SKOV3 and with Hct-116 was greater than 40 µM throughout. Also, the tumor weight reduction in [1] (100 mg/kg intraperitoneal) is recorded as 70.9%.
`CCCCC(CC)CNC(=O)C(Cc1ccccc1)NC1=C/C(=N/O)c2ccccc2C1=O` (stereo not shown) [NK1, (Z)-N-(2-ethylhexyl)-2-((4-(hydroxyimino)-1-oxo-1,4-dihydronaphthalen-2-yl)amino)-3-phenylpropanamide] gave a melting point of 120.3 to 121.8 °C. Moreover, the IC50 against human IDO1 [3] stood at 3.45 µM. Besides, in the data set on HepG2, the concentration for half-maximal inhibition (IC50) was determined as 1.28 ± 0.27 µM. This compound gave an IC50 in the data set with SKOV3 of 0.95 ± 0.18 µM. The same compound came in with an IC50 with Hct-116 of 0.49 ± 0.14 µM.
